Experimental data taken from patent US12433876B2, “Septin inhibitors for treatment of cancers” (UNIVERSITY OF ROCHESTER, priority 2019, dated 2025).

Tests used:
septin-7 = target: T1, septin-7 (Homo sapiens, UniProt Q16181); test: Confocal analysis of septin-7; type: cell-based; details: PANC-1 cells
T1 construct: investigate the response of other septin family members in PANC-1 cells upon treatment with UR214-9; endogenous in cells; host or cells: PANC-1, JIMT-1, SKOV-3 (confocal); PANC-1 (immunoblot)

septin-6 = septin-6 (Homo sapiens, UniProt Q14141); test: Confocal analysis of septin-6; type: cell-based; details: SKOV-3, 1 μM, 48 hours
septin-2 = target: T2, septin-2 (Homo sapiens, UniProt Q15019); test: Immunoblot of septin-2 expression; type: cell-based; details: 48 hours
T2 sequence (Q15019 1-361): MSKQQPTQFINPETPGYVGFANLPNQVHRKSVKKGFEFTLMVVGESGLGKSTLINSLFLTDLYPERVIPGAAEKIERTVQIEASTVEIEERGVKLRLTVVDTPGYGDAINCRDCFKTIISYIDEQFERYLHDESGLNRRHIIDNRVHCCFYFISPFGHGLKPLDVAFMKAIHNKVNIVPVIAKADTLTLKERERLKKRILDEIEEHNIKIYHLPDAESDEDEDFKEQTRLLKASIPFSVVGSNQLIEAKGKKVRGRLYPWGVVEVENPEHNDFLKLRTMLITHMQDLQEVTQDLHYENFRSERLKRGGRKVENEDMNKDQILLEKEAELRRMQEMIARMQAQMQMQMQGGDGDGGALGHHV

JIMT-1 cells = test: Cell cycle analysis (PI, flow cytometry), JIMT-1; type: cell-based; details: JIMT-1, 3 μM
Method: For cell cycle analysis, BXPC-3 and PANC-1 and JIMT-1 cells (100,000/well) were seeded overnight in a 6 well dishes and allowed to adhere overnight. Media was replaced with fresh complete medium supplemented with DMSO or UR214-9 (100 nM and 3 μM) and cells were incubated for 72 hours. The media containing the drugs was removed and cells were washed twice with PBS and trypsinized gently. The cells were collected in 15 mL tubes, complete DMEM media was added to block trypsin and cells were centrifuged. The supernatants were removed and cells were gently treated with 70% cold-EtOH for 30 minutes. The fixed cells were centrifuged and the pellets obtained were collected in flow cytometry tubes and stained with preformulated PI/RNase solution (Cell Signaling Technology, catalog number: 4087s) for 30 minutes. The PI content was analyzed using a flow cytometer. Data was processed using Flowjo software.

HER2+ PANC-1 xenograft = test: PANC-1 xenograft tumor growth; type: in vivo, NSG mice; details: 25 mg/kg IP, 52 days; p<0.0001
Description: Cell Cycle Protein Expression. Cell Cycle Antibody Array (FullMoon BioSystems Inc, catalogue number: ACC:058), a high throughput ELISA based antibody array, designed for qualitative/semi-quantitative protein expression profiling was employed to investigate the protein changes after drug treatment. PANC-1 cells were lysed in buffer containing protease and phosphatase inhibitors (Cell Signaling, catalog number: 9803S). Total protein content was quantified by Bradford assay and equal amounts of proteins were analyzed in duplicate with arrays containing 4 to 6 spots for each of 60 probes (ACC058, Cell Cycle Antibody Array; Full Moon Biosystems, Sunnyvale, Calif.), according to manufacturer's instructions. After background correction, mean signal intensities were measured using FullMoon Inc's imaging services. Protein expressions in both the naïve and 328 treatment group was normalized to GAPDH signals. Confocal Analysis of Septin Disarrangement. To determine the impact of UR214-9 treatment on Septin-2 structure in cells, PANC-1 or JIMT-1 cells were seeded on glass slides and allowed to adhere overnight. The media was replaced with complete DMEM media supplemented with DMSO or UR214-9 (1 μM and 70 nM) and cells were incubated for 48 hours. […] The cells were stained with fluorescence linked secondary antibody for 1 hr under dark. […] Five cells were outlined and analyzed per field. […]

[1] = system: JIMT-1 breast cancer cells; test: RNA-Seq whole transcriptome analysis, JIMT-1; type: cell-based, human; details: 10 nM Afatinib, 1 μM UR214-9
PANC-1 cell line = test: RNA-Seq whole transcriptome analysis, PANC-1; type: cell-based, human; details: 10 nM Afatinib, 1 μM UR214-9

septin-6, sequence (Q14141 whole entry): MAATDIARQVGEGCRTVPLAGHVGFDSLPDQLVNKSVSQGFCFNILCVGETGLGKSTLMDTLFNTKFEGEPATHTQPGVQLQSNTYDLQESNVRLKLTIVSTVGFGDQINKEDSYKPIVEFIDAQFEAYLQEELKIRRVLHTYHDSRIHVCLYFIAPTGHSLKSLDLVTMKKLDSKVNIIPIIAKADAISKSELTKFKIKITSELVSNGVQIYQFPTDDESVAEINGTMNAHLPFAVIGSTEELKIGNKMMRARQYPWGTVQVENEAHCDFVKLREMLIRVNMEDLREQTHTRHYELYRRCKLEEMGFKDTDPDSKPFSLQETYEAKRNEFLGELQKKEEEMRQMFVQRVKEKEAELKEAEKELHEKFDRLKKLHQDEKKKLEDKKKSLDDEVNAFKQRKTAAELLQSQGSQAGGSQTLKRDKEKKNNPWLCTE
T1 sequence (Q16181 whole entry): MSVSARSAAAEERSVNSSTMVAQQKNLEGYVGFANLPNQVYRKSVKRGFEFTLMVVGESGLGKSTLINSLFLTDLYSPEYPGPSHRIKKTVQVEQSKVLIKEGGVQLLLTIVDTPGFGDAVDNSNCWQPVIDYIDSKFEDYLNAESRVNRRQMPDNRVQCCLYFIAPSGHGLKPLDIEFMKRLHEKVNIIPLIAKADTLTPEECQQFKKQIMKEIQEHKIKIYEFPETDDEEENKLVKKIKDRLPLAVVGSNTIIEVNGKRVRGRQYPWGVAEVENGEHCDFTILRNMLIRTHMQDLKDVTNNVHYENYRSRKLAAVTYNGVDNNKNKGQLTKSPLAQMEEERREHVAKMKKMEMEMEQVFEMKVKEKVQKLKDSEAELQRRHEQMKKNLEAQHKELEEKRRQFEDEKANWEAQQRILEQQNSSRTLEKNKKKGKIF

O=C(Nc1cc(Cl)nc(Cl)c1)Nc1cccc(SC(F)(F)F)c1F [UR214-9]
septin-7 (confocal) (septin-7): reduced expression
septin-6 (confocal) (septin-6): decreased upon treatment
septin-2 protein expression levels (western blot) (septin-2; MDA-MB-231, JIMT-1 and MCF-7 cells, 10 and 30 μM): does not alter the protein expression levels
septin-2 expression (immunoblot) (septin-2; PANC-1, 1.0 and 10.0 μM): unaffected
cell cycle distribution (JIMT-1 cells): G1 phase arrest
xenograft tumor growth (HER2+ PANC-1 xenograft): significantly delayed growth
dysregulated genes, down [1]: 4
dysregulated genes, up [1]: 7
significantly differentially expressed genes versus control (PANC-1 cell line): no differentially expressed genes
